From patent publication EP0152574A1, “6-Ethoxy-4-methyl-benzothiazol-2(3H)-one, processes for its preparation and medicaments containing this compound” (priority 1983, dated 1985)

Key:
[1] = test system: Entzündungsschmerz der Ratte; test: Inflammatory pain test according to RANDALL and SELITTO (yeast-inflamed paw, pain threshold); format: in vivo; conditions: 1.5 h; rat, oral, 90 min after dosing; dose raising pain threshold by 50 %; confidence limits in brackets
Experimental: l.) Die Prüfung der Wirkung gegen den Entzündungsschmerz der Ratte erfolgte mit der Methode nach RANDALL u. SELITTO (Arch. int. Pharmacodyn. 111, 409 (1957)). Die Prüfsubstanzen wurden männlichen Ratten mit einem Gewicht zwischen 100 und 130 g als Verreibung in 1%iger Methylzellulose (1,0 ml/100 g Tier) 90 Minuten nach der subplantaren Hefegabe per Schlundsonde verabfolgt. Aus der 90 Minuten nach Gabe der verschiedenen Dosen der Prüfsubstanz gemessenen Schmerzschwelle wurde nach linearer Regressionsanalyse eine ED50 als jene Dosis ermittelt, die eine Anhebung der Schmerzschwelle um 50 % bewirkt.

Hefefieber der Ratte = test: Antipyretic action against yeast-induced fever; format: in vivo; set-up: unit not given here; conditions: rat, oral, 2 h after dosing; dose lowering yeast fever by 1°C; limits in brackets
Experimental: 2. Die Prüfung der antipyretischen Wirkung erfolgte gegen das durch subcutane Gabe von 100 mg Hefe/100 g Tier ausgelöste Fieber an 120-150 g schweren männlichen Ratten. Die Prüfsubstanzen wurden 4 Stunden nach Hefegabe als Verreibung in l%iger Methylzellulose (1,0 ml/100 g) per Schlundsonde verabfolgt. Aus der 2 Stunden danach gefundenen Veränderung der Rektaltemperatur gegenüber der der Kontrolltiere wurde nach linearer Regressionsanalyse eine ED-1,0°C als jene Dosis berechnet, die das Hefefieber um 1°C senkte.

in vivo = conditions: rat, oral, 14 days observation, limits in brackets
Experimental: 3.) Die Bestimmung der akuten Toxizität erfolgte an Ratten beider Geschlechter mit einem Gewicht zwischen 120 und 150 g. Die Prüfsubstanzen wurden als Verreibung in l%iger Methylzellulose (2,0 ml/100 g Tier) per Schlundsonde appliziert. Die Berechnung der LD50 erfolgte nach […] u.

[2] = test system: Glutathiongehalt der Mäuseleber; test: Effect on liver glutathione content (ELLMAN method); format: in vivo, Maus
Experimental: 4.) Der Einfluß auf den Glutathion-Gehalt der Leber wurde an männlichen Mäusen mit einem Gewicht zwischen 25 und 30 g untersucht. 2 Stunden nach oraler Gabe der Prüfsubstanz (als Verreibung in l%iger Methylzellulose, 0,2 ml/10 g Tier) wurde die Leber entnommen.
Für die prognostische Beurteilung einer Hepatotoxizität ist die Erschöpfung der Glutathionvorräte in der Leber ein geeigneter Indikator.

Row | SMILES | ED50 [1] | ED-1,0 °C (Hefefieber der Ratte) | LD50 at 336 h (in vivo) | Verminderung des Leberzellglutathion ([2]; in vivo, po, 1000 mg/kg) | red. GSH x̄ ([2]; in vivo, po, 1000 mg/kg) | Δ gegen Kontrollen ([2]; in vivo, po, 1000 mg/kg) | red. GSH x̄ ([2]; mouse liver, 2 h after oral 1000 mg/kg) | Verminderung des Leberzellglutathion ([2]; single oral dose 1000 mg/kg, mouse, critical range = depletion by more than 50 %) | Δ gegen Kontrollen ([2]; in vivo, po, 160 mg/kg) | Δ gegen Kontrollen ([2]; in vivo, po, 200 mg/kg) | Δ gegen Kontrollen ([2]; in vivo, po, 250 mg/kg) | Δ gegen Kontrollen ([2]; in vivo, po, 315 mg/kg)
1 | CCOc1cc(C)c2[nH]c(=O)sc2c1 [Substanz A, 6-Ethoxy-4-methyl-benzothiazol-2(3H)-on] | 24.1 mg/kg | 31,2 (25,1-36,5) | > 4000 mg/kg | deutlich schwächer und unterhalb des kritischen Bereiches | 5,02 | - 36,0% |  |  |  |  |  | 
2 | COc1cc(C)c2[nH]c(=O)sc2c1 [Substanz B, 6-Methoxy-4-methyl-benzothiazol-2(3H)-on] | 23 mg/kg | 29,6 (25,0-34,0) | 7580 mg/kg | > 50% | 3,42 | - 56,4% |  |  |  |  |  | 
3 | Cc1cc(C)c2[nH]c(=O)sc2c1 [Substanz C, 4,6-Dimethyl-benzothiazol-2(3H)-on] | 49.7 mg/kg | 18,1 (11,3-23,7) |  |  |  |  | 2,90 mMol/g | > 50% |  |  |  | 
4 | CC(=O)Nc1ccc(O)cc1 [Substanz D, p-Hydroxy-acetanilid] | 215 mg/kg | 123 (84,0-155) | 3960 mg/kg |  |  |  |  |  | - 32,7% | - 51,3% | - 65,7% | - 82,4%
